Target: T1, purified TRPM7 reconstituted in lipid bilayers (Mus musculus, UniProt Q923J1)
T1 construct: truncated C-terminally (the corresponding protein residues 1–1280); GFP (N); thrombin cleavage site (LVPRG) (N); made in house; host or cells: HEK 293S GnTI- cells (BacMam baculovirus made in Sf9)
T1 sequence (Q923J1 1-1280): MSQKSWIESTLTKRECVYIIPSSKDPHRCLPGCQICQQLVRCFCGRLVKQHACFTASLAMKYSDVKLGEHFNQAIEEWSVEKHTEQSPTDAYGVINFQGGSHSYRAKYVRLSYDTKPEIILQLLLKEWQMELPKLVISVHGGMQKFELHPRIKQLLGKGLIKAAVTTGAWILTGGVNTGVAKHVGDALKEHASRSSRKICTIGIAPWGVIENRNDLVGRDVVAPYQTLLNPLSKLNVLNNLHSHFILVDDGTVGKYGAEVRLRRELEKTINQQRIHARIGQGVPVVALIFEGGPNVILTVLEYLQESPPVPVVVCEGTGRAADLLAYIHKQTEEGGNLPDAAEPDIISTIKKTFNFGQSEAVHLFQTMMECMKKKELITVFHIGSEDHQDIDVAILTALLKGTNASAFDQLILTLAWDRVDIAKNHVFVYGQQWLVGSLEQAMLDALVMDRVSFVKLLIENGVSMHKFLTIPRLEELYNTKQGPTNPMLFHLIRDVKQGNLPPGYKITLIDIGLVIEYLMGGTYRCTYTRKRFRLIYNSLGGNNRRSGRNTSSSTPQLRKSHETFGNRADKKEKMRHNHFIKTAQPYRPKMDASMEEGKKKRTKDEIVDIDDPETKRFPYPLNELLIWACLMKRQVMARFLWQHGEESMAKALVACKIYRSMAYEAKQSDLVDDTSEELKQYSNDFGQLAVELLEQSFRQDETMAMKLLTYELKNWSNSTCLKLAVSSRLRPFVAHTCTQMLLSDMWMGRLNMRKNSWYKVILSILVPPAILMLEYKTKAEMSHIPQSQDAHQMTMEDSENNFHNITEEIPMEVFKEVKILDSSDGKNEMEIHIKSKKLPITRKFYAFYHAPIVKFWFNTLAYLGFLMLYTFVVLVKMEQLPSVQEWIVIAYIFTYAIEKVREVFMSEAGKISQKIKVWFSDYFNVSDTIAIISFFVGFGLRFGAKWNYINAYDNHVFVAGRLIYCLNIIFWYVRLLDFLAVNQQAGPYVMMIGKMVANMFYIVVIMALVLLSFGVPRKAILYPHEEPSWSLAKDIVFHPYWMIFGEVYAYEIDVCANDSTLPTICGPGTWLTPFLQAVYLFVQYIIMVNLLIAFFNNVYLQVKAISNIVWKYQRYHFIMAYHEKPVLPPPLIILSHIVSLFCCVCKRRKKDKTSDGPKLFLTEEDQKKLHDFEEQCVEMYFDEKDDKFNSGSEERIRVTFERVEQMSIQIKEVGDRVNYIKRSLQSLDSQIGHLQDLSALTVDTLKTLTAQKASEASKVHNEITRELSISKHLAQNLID
Assay: Planar lipid bilayer single-channel recordings
Assay type: biochemical
Settings: 2.5 μM NTB, membrane potential –100 mV, n = 3; Po without agonist 0.02 ± 0.01
Procedure: Planar lipid bilayers measurements were performed as described previously. Briefly, planar lipid bilayers were formed from a 30 mM solution of synthetic lipid mix POPC:POPE:POPG at a 3:1:1 ratio (Anatrace, P516:P416:P616) in n-decane (Sigma-Aldrich). The solution was used to paint a bilayer in an aperture of ∼150 µm diameter in a Meca chip (Nanion). Each cavity in the chip contained an individual integrated Ag/AgCl-microelectrode. The bathing solution contained 150 mM KCl, 0.02 mM MgCl2, 1 µM CaCl2 and 20 mM HEPES (pH 7.2). All the reagents (Sigma-Aldrich) were ultrapure (>99%). The bilayer capacitance was in the range of 5–10 pF.
The purified protein (10 ng/ml) was added to the bilayer-forming lipid mix (1 volume of protein to 1 volume of the lipid mix) and incubated for 30 min at 30 °C. […] Only after the incubated protein-lipid mix was added by painting, the unitary currents were recorded using an Orbit mini device (Nanion) controlled by the pCLAMP 10.2 software (Molecular Devices). Data were low-pass filtered at […] and digitized at 1.22 kHz. Single-channel conductance events, all-points histograms, and other parameters were identified and analyzed using the Clampfit 10.3 software (Molecular Devices). Only recordings with one channel incorporated into the lipid bilayer were subjected to single-channel analysis. […]

SMILES: Oc1ccc2c3c1O[C@H]1c4oc5ccccc5c4C[C@@]4(O)[C@@H](C2)N(CC2CC2)CC[C@]314 [Naltriben, naltriben]
- open probability, Po: 0.44 ± 0.25
